These results are taken from patent US10071068B2, “Sustained release oral dosage forms of an R-baclofen prodrug” (XENOPORT, INC., priority 2009, dated 2018).

The conditions of series [1]: dosed either orally or directly into the colon of a mammal; cited from earlier work.
Series [2] is described as follows: Bulk density, tap density and compressibility of powders. The class given is physicochemical. The conditions noted are these: major component of Example 15 blend.
The conditions of series [3]: clinical trials (Gerson et al. 2009); cited from earlier work.
Series [4] can be described thus: Particle size of compound (1) lots, wet and dry method. It counts as physicochemical.
Series [5] in a line: FLODEX powder flowability (Flodex). It counts as physicochemical. The following applies: for Flowdex: crystalline compound (1) lot, Table 2; for Flodex: neat powder, listed as Compound (1). The source says: The flow of dry powders was characterized using a FLODEX™ Powder Flowability Index Test Instrument (Hanson Research Corporation, Chatsworth, Calif.). The instrument was equipped with a cylindrical metal reservoir, which holds the test powder prior to flow testing. The cylindrical reservoir has an inside diameter of 5.7 cm and a length of […]. The bottom end of the reservoir can be closed with removable metal discs. Each disc has a round orifice centered in the disc. Orifice diameters range from 4 mm to 10 mm in 1 mm increments, and from 10 mm to 34 mm in 2 mm increments. Prior to flow testing, the orifice is blocked. Powder is then placed over the blocked orifice. When the orifice is unblocked, powder can flow through the orifice under the force of gravity if the orifice diameter is sufficiently large. Powder that flows through small orifices is considered to have flow properties useful for tableting. For example, a Flodex measurement (Flodex) of less than about 24 mm is […] high-speed tableting operations at commercial scale. A Flodex less than about 20 mm is useful for high-speed tableting operations. A Flodex of 18 mm or less is considered especially useful for high speed tableting operations.
The Flodex is determined by first gently filling the reservoir with approximately 70 cc of test powder while the orifice at the bottom is blocked, while avoiding severe piling, and without vibrating or tapping the powder bed. Next, the orifice is unblocked. This can be accomplished by opening a shutter that is supplied with the instrument. Alternatively, if a shutter is not used, the powder-filled reservoir fitted with a disc can be set on a dry, flat surface to block the orifice. Then, slowly and evenly, the reservoir is lifted to allow the powders to flow. In either procedure, if the powder flows through the orifice, a clear channel is left within the powder bed. […] The flow test is conducted with various orifice sizes until the minimum orifice size for good flow is identified, which is referred to as the Flodex.

In the case of `CC(C)C(=O)O[C@@H](OC(=O)NC[C@H](CC(=O)O)c1ccc(Cl)cc1)C(C)C` [Compound (1), (3R)-4-{[(1S)-2-Methyl-1-(2-methylpropanoyloxy)propoxy]carbonylamino}-3-(4-chlorophenyl)butanoic acid], the “bioavailability as R-baclofen” value in series [1] was “high bioavailability”. Also, the “Bulk Density” value in series [2] was 0.15 g/cc. Besides, the reflux episodes result in series [3] is “reduce reflux episodes”.

With `CC(C)C(=O)O[C@@H](OC(=O)NC[C@H](CC(=O)O)c1ccc(Cl)cc1)C(C)C` [Lot 70, (3R)-4-{[(1S)-2-Methyl-1-(2-methylpropanoyloxy)propoxy]carbonylamino}-3-(4-chlorophenyl)butanoic acid], in series [4], the “Particle size, Dry method, dv0.5” value worked out at 27.53 μm; the “Particle size, Dry method, dv0.9” value is recorded as 106.87 μm; the “Particle size, Wet method, dv0.5” value was found to be 4.81 μm; the “Particle size, Wet method, dv0.9” value was 37.2 μm. Also, in series [5], the Flowdex was found to be 26 mm. The compound further displayed a Flodex in series [5] (Lot 70) of 26 mm.

For `CC(C)C(=O)O[C@@H](OC(=O)NC[C@H](CC(=O)O)c1ccc(Cl)cc1)C(C)C` [Lot 4, (3R)-4-{[(1S)-2-Methyl-1-(2-methylpropanoyloxy)propoxy]carbonylamino}-3-(4-chlorophenyl)butanoic acid], in series [4], the “Particle size, Dry method, dv0.5” value was found to be 11.09 μm; the “Particle size, Dry method, dv0.9” value was 102 μm; the “Particle size, Wet method, dv0.5” value turned out to be 3.35 μm; the “Particle size, Wet method, dv0.9” value amounted to 40.47 μm. In series [5], this compound displayed a Flowdex of 23 mm. This compound also had a Flodex in series [5] (Lot 4) of 24 mm.

Regarding `CC(C)C(=O)O[C@@H](OC(=O)NC[C@H](CC(=O)O)c1ccc(Cl)cc1)C(C)C` [Lot 71, (3R)-4-{[(1S)-2-Methyl-1-(2-methylpropanoyloxy)propoxy]carbonylamino}-3-(4-chlorophenyl)butanoic acid], in series [4], the “Particle size, Dry method, dv0.5” value was 17.64 μm; the “Particle size, Dry method, dv0.9” value came to 107.48 μm; the “Particle size, Wet method, dv0.5” value is given as 22.17 μm; the “Particle size, Wet method, dv0.9” value came to 63.02 μm. This compound showed a Flowdex in series [5] of 26 mm. The Flodex in series [5] (Lot 71) was 26 mm.
